“Also recorded” adds a separate entry of the source.
Assays:
[1] = Solubility of imexon in water; assay type: physicochemical
[2] = Stability of imexon in aqueous solution; assay type: physicochemical; details: aziridine ring opens, isomerises to water-insoluble products
[3] = Stability of imexon in organic solvents; assay type: physicochemical
[4] = background statement; therapeutically effective dosages only intravenously; cited from earlier work

N=C1NC(=O)N2CC12 (centres unmarked) [Imexon, 4-imino-1,3-diazabicyclo-(3.1.0)-hexane-2-one]
solubility in water [1]: highly soluble in water | stability in water / aqueous solutions [2]: not stable; also recorded: decomposes in aqueous solutions after a short period | stability of solution in DMSO ([3]; DMSO): stable solution of imexon can be produced | stability in organic solvents ([3]; some organic solvents, in contrast to water): remains stable over a prolonged period | bioavailability [4]: low bioavailability

Source: US20080096947A1, “Parenteral Forms Of Administration Of Imexon And Method For The Production Thereof” (Heidelberg Pharma AG, priority 2004, published 2008)
